Our source for the MIC values is DBAASP.

Converted amounts (≈) assume the structure as drawn. “And” between values parts separate entries of the source, which are not always exact repeats. Equal entries are not always repeated. Where only a bound is given, the exact number is not on record here.

Some test systems named below: Bacillus megaterium; Escherichia coli ML-35; Saccharomyces cerevisiae; Micrococcus luteus; Salmonella typhimurium; Candida albicans; Shigella dysenteriae; Pseudomonas aeruginosa; Serratia marcescens; Bacillus subtilis; Escherichia coli; Proteus mirabilis; Escherichia coli UB1005; Escherichia coli ML-35p.
Assay in all cases: ≥ marks a high value that may be exact or a test limit, other limits are often not marked, values filed in µg/mL are converted to µM
The test system of assay [1] is Escherichia coli ATCC 35218.
Assay [2] deals with Staphylococcus aureus ATCC 25923.
In assay [3] the test system is Bacillus cereus ATCC 11778.
Assay [4] concerns Pseudomonas aeruginosa ATCC 9027.
Assay [5] deals with Pseudomonas aeruginosa ATCC 27853.
Assay [6] has as its system Salmonella enterica subsp. enterica serovar Typhimurium ATCC 14028.
The subject of assay [7] is Escherichia coli ATCC 25922.
The subject of assay [8] is Pseudomonas aeruginosa ATCC BAA-427.
Assay [9] concerns Bacillus subtilis ATCC 6633.
Assay [10] has as its system Pseudomonas aeruginosa ATCC 15692.
The subject of assay [11] is Staphylococcus epidermidis.
For assay [12], the system named is Micrococcus luteus ATCC 4698.
The subject of assay [13] is Staphylococcus aureus ATCC 29213.
Assay [14] has as its system Salmonella enterica subsp. enterica serovar Pullorum C79-13.
Assay [15] relates to Staphylococcus aureus ATCC 43300.
Assay [16] has as its system Enterococcus faecalis ATCC 29212.
Assay [17] concerns Bacillus subtilis CMCC 63501.
Assay [18] deals with Salmonella typhimurium ATCC 7731.
In assay [19] the test system is Staphylococcus epidermidis ATCC 12228.
In assay [20] the test system is Staphylococcus aureus BCRC 10780.

`CC(C)C[C@H](NC(=O)[C@@H](NC(=O)[C@H](CCCCN)NC(=O)[C@H](CCCCN)NC(=O)[C@@H](N)CC(C)C)C(C)C)C(=O)N[C@@H](CCCCN)C(=O)N[C@@H](C)C(=O)N[C@@H](C)C(=O)N[C@@H](C)C(N)=O` [LKKVLKAAA]: the MIC in assay [1] was no less than 50 µM; in assay [2] it was greater than 50 µM; in assay [3], no less than 50 µM; in assay [4], greater than 50 µM.

As to `CC[C@H](C)[C@H](NC(=O)[C@H](CCCCN)NC(=O)[C@H](CCCCN)NC(=O)[C@H](CC(C)C)NC(=O)[C@H](CCCCN)NC(=O)[C@H](CCC(=O)O)NC(=O)[C@H](CCCCN)NC(=O)[C@H](CCCCN)NC(=O)[C@H](CCCCN)NC(=O)[C@H](CC(N)=O)NC(=O)[C@H](CCCN=C(N)N)NC(=O)[C@H](Cc1ccccc1)NC(=O)[C@H](CCCCN)NC(=O)[C@H](CCCN=C(N)N)NC(=O)[C@H](CCCCN)NC(=O)[C@H](CCCN=C(N)N)NC(=O)[C@H](CCCCN)NC(=O)[C@H](CCCN=C(N)N)NC(=O)[C@H](CC(C)C)NC(=O)CN)C(=O)O` [GLRKRKRKFRNKKKEKLKKI], the MIC is greater than 64 µM in [5]; greater than 64 µM in [6]; greater than 64 µM in assay [2]; no less than 64 µM in the assay on Bacillus megaterium; no less than 64 µM in the assay on Escherichia coli ML-35; greater than 64 µM in assay [7].

In the case of `CC(C)C[C@H](NC(=O)[C@H](CC(=O)O)NC(=O)[C@H](CC(C)C)NC(=O)[C@H](CCCCN)NC(=O)[C@H](CC(C)C)NC(=O)[C@H](CC(=O)O)NC(=O)[C@H](CC(C)C)NC(=O)[C@H](CCCCN)NC(=O)[C@H](CC(C)C)NC(=O)[C@H](CC(=O)O)NC(=O)[C@H](CC(C)C)NC(=O)[C@H](CCCCN)NC(=O)[C@H](CCCN=C(N)N)NC(=O)[C@H](CCCN=C(N)N)NC(=O)[C@@H](N)CCCN=C(N)N)C(=O)O` [RRRKLDLKLDLKLDL], the MIC came out at 5 µM (≈ 9.48 µg/mL) in assay [2], 6 µM (≈ 11.4 µg/mL) in assay [8], 6 µM (≈ 11.4 µg/mL) in assay [7] and 5 µM (≈ 9.48 µg/mL) in assay [9].

In the case of `CSCC[C@H](NC(=O)[C@@H](NC(=O)[C@@H](NC(=O)[C@H](CCCCN)NC(=O)[C@H](CC(C)C)NC(=O)[C@H](C)NC(=O)[C@H](CCCCN)NC(=O)[C@@H](NC(=O)[C@H](CC(C)C)NC(=O)[C@H](Cc1ccccc1)NC(=O)[C@H](CC(N)=O)NC(=O)[C@H](CCC(=O)O)NC(=O)[C@H](Cc1ccccc1)NC(=O)CNC(=O)[C@H](CC(C)C)NC(=O)[C@@H](N)CCCCN)C(C)C)[C@@H](C)O)C(C)C)C(=O)N[C@@H](Cc1cnc[nH]1)C(=O)N[C@H](C(=O)N1CCC[C@H]1C(=O)N[C@H](C(=O)N[C@@H](CO)C(=O)N1CCC[C@H]1C(=O)N[C@@H](CC(C)C)C(=O)N[C@@H](CC(C)C)C(N)=O)[C@@H](C)O)C(C)C` [KLGFENFLVKALKTVMHVPTSPLL], the MIC against Saccharomyces cerevisiae was no less than 64 µM; in assay [10] it was no less than 256 µM; in assay [2], greater than 256 µM; in assay [7], 16 µM (≈ 42.9 µg/mL); in the assay with Micrococcus luteus it was 4 µM (≈ 10.7 µg/mL).

For the molecule `CC[C@H](C)[C@H](NC(=O)CN)C(=O)N[C@@H](CC(C)C)C(=O)N[C@@H](CC(=O)O)C(=O)N[C@H](C(=O)N[C@@H](CC(C)C)C(=O)N[C@@H](CCCCN)C(=O)N[C@@H](CCC(N)=O)C(=O)N[C@@H](Cc1ccccc1)C(=O)N[C@@H](C)C(=O)N[C@@H](CCCCN)C(=O)NCC(=O)N[C@H](C(=O)NCC(=O)N[C@@H](CCCCN)C(=O)N[C@@H](CC(=O)O)C(=O)N[C@@H](CC(C)C)C(=O)N[C@H](C(=O)N[C@@H](CCCCN)C(=O)NCC(=O)N[C@@H](C)C(=O)N[C@@H](C)C(=O)N[C@@H](CCC(N)=O)C(=O)NCC(=O)N[C@H](C(=O)N[C@@H](CC(C)C)C(=O)N[C@@H](CO)C(=O)N[C@H](C(=O)N[C@H](C(=O)O)C(C)C)[C@@H](C)O)C(C)C)C(C)C)C(C)C)[C@@H](C)O` [GILDTLKQFAKGVGKDLVKGAAQGVLSTV], the MIC with Salmonella typhimurium is 17.2 µM (≈ 50 µg/mL); in the assay with Saccharomyces cerevisiae, 8.58 µM (≈ 25 µg/mL); in the assay with Candida albicans, greater than 34.3 µM; against Shigella dysenteriae it was 8.58 µM (≈ 25 µg/mL); in the assay on Pseudomonas aeruginosa, 8.58 µM (≈ 25 µg/mL); against Serratia marcescens, no less than 34.3 µM. Besides, the MIC in the assay on Bacillus subtilis was 17.2 µM (≈ 50 µg/mL); in the assay on Escherichia coli, 8.58 µM (≈ 25 µg/mL); against Proteus mirabilis, 17.2 µM (≈ 50 µg/mL); in the assay with Micrococcus luteus, 0.858 µM (≈ 2.5 µg/mL); in assay [11], no less than 34.3 µM.

Molecule `CC(C)C[C@H](NC(=O)[C@H](CCCN=C(N)N)NC(=O)[C@H](Cc1cnc[nH]1)NC(=O)[C@H](Cc1c[nH]c2ccccc12)NC(=O)CNC(=O)CNC(=O)[C@@H](N)CO)C(=O)N[C@@H](CCCN=C(N)N)C(=O)N[C@@H](CO)C(=O)O` [SGGWHRLRS] had a minimum inhibitory concentration (MIC) in assay [12] of no less than 75 µM.

In the case of `CC[C@H](C)[C@H](N)C(=O)N[C@@H](Cc1cnc[nH]1)C(=O)N[C@@H](CCCCN)C(=O)N[C@@H](Cc1ccccc1)C(=O)N[C@@H](Cc1c[nH]c2ccccc12)C(=O)N[C@@H](CCCN=C(N)N)C(=O)N[C@@H](CS)C(=O)N[C@@H](CCCN=C(N)N)C(=O)N[C@@H](CCCN=C(N)N)C(=O)N[C@@H](CCCN=C(N)N)C(=O)N[C@@H](Cc1ccccc1)C(=O)N[C@@H](CS)C(=O)N[C@@H](CCCN=C(N)N)C(=O)N[C@@H](Cc1c[nH]c2ccccc12)C(=O)N[C@@H](Cc1ccccc1)C(=O)N[C@@H](CCCCN)C(=O)N[C@@H](Cc1cnc[nH]1)C(=O)N[C@H](C(N)=O)[C@@H](C)CC` [IHKFWRCRRRFCRWFKHI], the MIC was 8 µM (≈ 20.6 µg/mL) in [5]; 8 µM and 16 µM in [13]; 8 µM (≈ 20.6 µg/mL) in [14]; 8 µM (≈ 20.6 µg/mL) in assay [15]; 16 µM (≈ 41.2 µg/mL) in assay [16]; 8 µM (≈ 20.6 µg/mL) in the assay on Escherichia coli UB1005. The figures for the MIC in [17], in assay [18] and in assay [19] were 16 µM (≈ 41.2 µg/mL), 8 µM (≈ 20.6 µg/mL) and 8 µM (≈ 20.6 µg/mL), respectively.

`CC[C@H](C)[C@H](NC(=O)[C@H](CCCCN)NC(=O)[C@@H]1CCCN1C(=O)[C@@H](NC(=O)[C@H](CC(C)C)NC(=O)[C@H](C)NC(=O)[C@H](Cc1ccccc1)NC(=O)[C@H](Cc1ccccc1)NC(=O)CNC(C)=O)[C@@H](C)CC)C(N)=O` [GFFALIPKI] had an MIC in assay [20] of no less than 99.5 µM.

In the case of `CC(C)C[C@H](NC(=O)[C@H](CCCCN)NC(=O)[C@H](CCCCN)NC(=O)[C@H](Cc1ccccc1)NC(=O)[C@H](Cc1ccccc1)NC(=O)[C@H](CCCCN)NC(=O)[C@H](CCCCN)NC(=O)[C@H](Cc1ccccc1)NC(=O)[C@H](CCCN=C(N)N)NC(=O)[C@@H](N)CCCCN)C(=O)N[C@@H](CCCCN)C(=O)N[C@@H](CCCCN)C(=O)N[C@@H](Cc1ccccc1)C(=O)N[C@H](C(=O)N[C@@H](CCCCN)C(=O)N[C@@H](CCCCN)C(=O)NCC(=O)N[C@@H](Cc1ccccc1)C(=O)N[C@@H](CCCCN)C(=O)N[C@@H](CCCCN)C(=O)N[C@@H](Cc1ccccc1)C(=O)N[C@@H](C)C(=O)N[C@@H](CCCCN)C(=O)N[C@H](C(=O)O)C(C)C)C(C)C` [KRFKKFFKKLKKFVKKGFKKFAKV], the MIC with Escherichia coli ML-35p was 1.98 µM and 0.989 µM.

As a reminder, the MIC is the lowest concentration found to suppress growth. Low values mean a more susceptible organism, high ones a less susceptible organism.
